In brackets after ≈: the same amount, converted by molar mass. Several values for one entry are separate records, joined by “and”; a condition that tells them apart may be missing. Identical values can stand only once. Like-named read-outs stand apart in the source and are kept apart here.
Columns and labels:
[1] = ref [13], [15], cited from earlier work
[2] = Non-equilibrium solubility by nephelometry, pH 6.5; type: physicochemical; settings: for solubility: phosphate buffer
P. falciparum 3D7 cells [3] = settings: cited from earlier work
human albumin = human albumin (Homo sapiens, UniProt P02768); assay: Protein binding estimated on human albumin column; type: in vitro ADME; settings: human albumin chromatographic method
Chain of human albumin (P02768 25-609): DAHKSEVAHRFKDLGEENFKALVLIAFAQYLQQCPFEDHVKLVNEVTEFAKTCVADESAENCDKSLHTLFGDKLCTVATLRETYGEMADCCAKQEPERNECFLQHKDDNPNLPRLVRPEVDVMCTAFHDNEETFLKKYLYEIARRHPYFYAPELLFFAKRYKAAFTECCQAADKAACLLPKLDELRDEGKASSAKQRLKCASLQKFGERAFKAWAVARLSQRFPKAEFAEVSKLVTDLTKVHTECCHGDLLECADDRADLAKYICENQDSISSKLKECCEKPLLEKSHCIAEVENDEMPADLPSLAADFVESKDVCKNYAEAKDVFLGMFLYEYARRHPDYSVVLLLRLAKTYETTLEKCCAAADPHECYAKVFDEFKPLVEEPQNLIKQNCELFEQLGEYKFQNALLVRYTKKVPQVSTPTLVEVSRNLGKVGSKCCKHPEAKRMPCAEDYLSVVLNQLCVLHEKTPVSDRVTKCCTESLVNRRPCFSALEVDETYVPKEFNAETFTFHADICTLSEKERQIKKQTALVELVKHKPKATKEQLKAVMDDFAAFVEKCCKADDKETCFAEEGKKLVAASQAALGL

hDHODH = hDHODH (Homo sapiens, UniProt Q02127); settings: read-out: IC50 hDHODH; reported previously; ref [13], [15]; cited from earlier work
Chain of hDHODH (Q02127 31-395 limits assumed): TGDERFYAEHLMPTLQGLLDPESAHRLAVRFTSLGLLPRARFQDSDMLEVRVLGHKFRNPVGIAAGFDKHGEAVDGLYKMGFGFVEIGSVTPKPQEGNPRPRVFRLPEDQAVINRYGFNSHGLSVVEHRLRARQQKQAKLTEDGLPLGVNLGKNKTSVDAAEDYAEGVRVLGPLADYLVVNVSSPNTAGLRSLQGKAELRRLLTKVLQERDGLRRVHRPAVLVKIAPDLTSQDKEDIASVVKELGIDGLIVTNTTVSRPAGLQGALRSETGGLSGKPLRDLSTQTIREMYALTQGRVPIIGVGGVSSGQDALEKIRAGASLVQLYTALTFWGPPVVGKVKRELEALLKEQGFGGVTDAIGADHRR

[4] = ref [13], [15], cited from earlier work; for Eh Human: predicted hepatic extraction ratio
[5] = tested on: P. berghei NK65 ANKA strain; settings: cited from earlier work
[6] = In vitro metabolism in human liver microsomes; type: in vitro ADME; settings: for Eh Human: predicted hepatic extraction ratio; for microsomal CLint at 1 μM: microsomes, pH 7.4
[7] = Mouse systemic exposure after single oral dose; type: in vivo; settings: single oral dose 20 mg/kg, plasma
[8] = In vitro metabolism in mouse liver microsomes; type: in vitro ADME; settings: for Eh Mouse: predicted hepatic extraction ratio; for microsomal CLint at 1 μM: microsomes, pH 7.4
PfDHODH = target: T1, PfDHODH (Plasmodium falciparum, UniProt Q08210); assay: PfDHODH DCIP dye-based enzyme assay; type: biochemical; settings: for IC50: IC50 PfDHODH
T1 sequence (Q08210 158-569 limits assumed): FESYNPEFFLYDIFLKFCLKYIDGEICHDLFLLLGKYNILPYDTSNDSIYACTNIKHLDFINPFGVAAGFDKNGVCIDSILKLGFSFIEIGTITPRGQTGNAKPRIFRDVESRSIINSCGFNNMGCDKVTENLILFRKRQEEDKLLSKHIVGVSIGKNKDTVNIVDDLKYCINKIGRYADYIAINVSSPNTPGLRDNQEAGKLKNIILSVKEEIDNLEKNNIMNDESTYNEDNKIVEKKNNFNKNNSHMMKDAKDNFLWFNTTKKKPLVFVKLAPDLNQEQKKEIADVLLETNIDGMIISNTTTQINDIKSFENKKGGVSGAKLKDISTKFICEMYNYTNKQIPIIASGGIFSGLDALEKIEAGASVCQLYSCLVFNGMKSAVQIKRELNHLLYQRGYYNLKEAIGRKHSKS

rat plasma proteins = assay: Protein binding in rat plasma by ultracentrifugation; type: in vitro ADME; settings: 37°C
[9] = Rat pharmacokinetics after IV and oral administration; type: in vivo; settings: for adverse reactions following IV or oral administration: either dose route; for clearance: male, Sprague Dawley, in vivo, iv
P. falciparum 3D7 cells [10] = assay: P. falciparum whole cell assay; type: cell-based, Plasmodium falciparum
[11] = tested on: P. berghei NK65 ANKA strain; assay: Peter's test, P. berghei efficacy in mice; type: in vivo, Plasmodium berghei; settings: for ED50: Plasmodium berghei, in Mus musculus, po, read-out: ED50 95% confidence interval; for adverse reactions attributed to drug: any of the dose levels, efficacy study in mice

| Structure (SMILES) | solubility [2] [µM] | Human Plasma Binding (human albumin) [%] | Eh Human [6] | Time above 1 μM [7] [h] | Eh Mouse [8] | microsomal CLint at 1 μM [6] [µL/min/mg] | aqueous solubility at pH 6.5 (in words) [2] | IC50 (PfDHODH; stated in text) | microsomal CLint at 1 μM [8] [µL/min/mg] | further results |
| --- | --- | --- | --- | --- | --- | --- | --- | --- | --- | --- |
| Cc1cc(Nc2ccc3ccccc3c2)n2ncnc2n1 [Compound 1, (5-methyl-[1,2,4]triazolo[1,5-a]pyrimidin-7-yl)-naphthalen-2-yl-amine] | 45 to 90 (≈ 12.4 to 24.8 µg/mL) | 93.8 |  |  |  |  |  |  |  | CLint Mouse ([1]; mouse liver microsomes, reported previously): 229 μL/min/mg protein; Eh Mouse ([1]; predicted hepatic extraction ratio, mouse): 0.91; EC50 (P. falciparum 3D7 cells [3]; read-out: EC50 Pf 3D7 cells, serum media, reported previously, ref [13], [15]): 76 nM; IC50 (P. falciparum 3D7 cells [3]; read-out: IC50 against the parasite, initial lead, ref [15]): 50 to 100 nM; IC50 (hDHODH): > 200000 nM; Eh Human [4]: 0.84 |
| Cc1cc(Nc2ccc(C(F)(F)F)cc2)n2ncnc2n1 [Compound 2, (5-methyl-[1,2,4]triazolo[1,5-a]pyrimidin-7-yl)-(4-trifluoromethyl-phenyl)-amine] | 21 to 43 (≈ 6.16 to 12.6 µg/mL) | 86.9 |  |  |  |  |  |  |  | suppression of parasitemia ([5]; 50 mg/kg BID, 24 h after the last dose, ref [15]): 90%; CLint Human ([4]; human liver microsomes, reported previously): 8/ND ^a μL/min/mg protein; Eh Human [4]: 0.29/ND ^a |
| Cc1cc(Nc2ccc(C(C)C)cc2)n2ncnc2n1 [Compound 14, N-(4-Isopropylphenyl)-5-methyl-[1,2,4]triazolo[1,5-a]pyrimidin-7-amine] | 47 to 94 (≈ 12.6 to 25.1 µg/mL) | 91.3 | 0.64 | <1 | 0.91 |  |  |  |  |  |
| Cc1cc(Nc2ccc(C(C)(C)C)cc2)n2ncnc2n1 [Compound 15, N-(4-tert-Butylphenyl)-5-methyl-[1,2,4]triazolo[1,5-a]pyrimidin-7-amine] | 11 to 22 (≈ 3.09 to 6.19 µg/mL) | 93.2 |  |  |  | > 30 | poorly soluble | < 100 nM | > 30 |  |
| Cc1cc(Nc2ccc(SC(F)(F)F)cc2)n2ncnc2n1 [Compound 20, 5-Methyl-N-(4-(trifuoromethylthio)phenyl)-[1,2,4]triazolo[1,5-a]pyrimidin-7-amine] | 5 to 10 (≈ 1.63 to 3.25 µg/mL) | 96.1 | < 0.2 |  | 0.84 | < 10 | poorly soluble |  | > 25 |  |
| Cc1cc(Nc2ccc(S(F)(F)(F)(F)F)cc2)n2ncnc2n1 [Compound 21, N-(4-Pentafluorosulfenylphenyl)-5-methyl-[1,2,4]triazolo[1,5-a]pyrimidin-7-amine] | 71 to 142 (≈ 24.9 to 49.9 µg/mL) | 95.4 | <0.2/<0.2 |  | <0.2/<0.2 | < 6 |  |  |  | binding to rat plasma proteins (rat plasma proteins): 95.2%; IC50 (PfDHODH): < 300 nM; fold better activity (lower IC50) against PfDHODH than 2 (PfDHODH; comparator 2): 2-3 fold; Time above 1 μM ([7]; 20 mg/kg): 18 h; adverse reactions following IV or oral administration [9]: No adverse reactions; clearance ([9]; 5.1 mg/kg): 1.2 mL/min/kg; fold EC50 above the levels for the comparator anti-malarial drugs (P. falciparum 3D7 cells [10]): 10-200 fold; parasite clearance (in words) ([11]; 50 mg/kg BID): none of the mice were parasite free on any day; parasite clearance (in words) ([11]; 100 mg/kg QD): none of the mice were parasite free on any day; ED50 [11]: 10 to 29 mg/kg; adverse reactions attributed to drug [11]: No adverse reactions |
| Cc1cc(Nc2ccc(C(C)(C)C)c(F)c2)n2ncnc2n1 [Compound 29, N-(4-tert-Butyl-3-fluorophenyl)-5-methyl-[1,2,4]triazolo[1,5-a]pyrimidin-7-amine] |  | 96.4 |  | <1 |  | > 30 | poorly soluble | < 100 nM and ~30 nM | > 30 | fold decrease in PfDHODH IC50 vs 15 (PfDHODH; comparator 15): 2 fold |
| Cc1cc(Nc2cc(F)c(C(F)(F)F)c(F)c2)n2ncnc2n1 [Compound 32, N-(3,5-difluoro-4-(trifluoromethyl)phenyl)-5-methyl-[1,2,4]triazolo[1,5-a]pyrimidin-7-amine] | 9 to 18 (≈ 2.96 to 5.93 µg/mL) | 96.6 | <0.2/<0.2 |  | <0.2/<0.2 | < 6 | poorly soluble |  |  | binding to rat plasma proteins (rat plasma proteins): 97.3%; IC50 (PfDHODH): < 300 nM; Time above 1 μM ([7]; 20 mg/kg): 19 h; adverse reactions following IV or oral administration [9]: No adverse reactions; clearance ([9]; 0.9 mg/kg): 2.3 mL/min/kg; clearance ([9]; 2.9 mg/kg): 1.5 mL/min/kg; parasite clearance (in words) ([11]; 50 mg/kg BID): parasite free on day 5; mice remaining parasite free through day 7 ([11]; 100 mg/kg BID, parasites reemerged on day 9): 4/5; parasite clearance (in words) ([11]; 100 mg/kg QD): parasite free on day 5; ED50 [11]: 7.6 to 13 mg/kg; adverse reactions attributed to drug [11]: No adverse reactions |
| Cc1cc(Nc2ccc3c(c2)CCCC3)n2ncnc2n1 [Compound 33, 5-methyl-N-(5,6,7,8-tetrahydronaphthalen-2yl)-[1,2,4]triazolo[1,5-a]pyrimidin-7-amine] | 89 to 179 (≈ 24.9 to 50 µg/mL) | 95.5 |  |  |  | > 30 |  | < 100 nM and ~30 nM | > 30 | IC50 (PfDHODH): 35 nM |
| Cc1cc(Nc2ccc3c(c2)CCC3)n2ncnc2n1 [Compound 34, N-(2,3-dihydro1H-inden-5-yl)-5-methyl-[1,2,4]triazolo[1,5-a]pyrimidin-7-amine] | 47 to 94 (≈ 12.5 to 24.9 µg/mL) | 92.5 | 0.81 |  | 0.94 |  |  |  |  |  |
| Cc1cc(Nc2ccc3sccc3c2)n2ncnc2n1 [Compound 36, N-(Benzo[b]thiophen-5yl)-5-methyl-[1,2,4]triazolo[1,5-a]pyrimidin-7-amine] | 22 to 44 (≈ 6.19 to 12.4 µg/mL) | 89.8 |  | <1 |  | > 30 |  | < 100 nM | > 30 |  |
| Cc1cc(NC2Cc3ccccc3C2)n2ncnc2n1 [Compound 45, N-(2,3-Dihydro-1H-inden-2-yl)-5-methyl-[1,2,4]triazolo[1,5-a]pyrimidin-7-amine] | 188 to 376 (≈ 49.9 to 99.8 µg/mL) | 76.1 | < 0.2 | <1 | 0.59 | < 10 | highly soluble |  | > 25 |  |
| CCN(CC)CCCC(C)Nc1ccnc2cc(Cl)ccc12 (stereo not drawn) [chloroquine, reference compound] |  |  |  |  |  |  |  |  |  | ED50 in this model ([5]; previous reports, ref [20]): ~2 mg/kg |
